Assay: gradient 5% acetonitrile 3 min, to 50% in 2 min, to 85% in 15 min, held 3 min, 100 µL/min
Conditions: column: Zorbax Extend-C18 2.1 x 50 mm; eluents: water / acetonitrile, 0.1% formic acid
How it was run: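 In both positive and negative ionization mode, a quadrupole time-of-flight mass spectrometer coupled to HPLC analyzed pure standards run in mixtures of ~100 molecules. The Zorbax Extend-C18 column (2.1 × 50 mm, 1.8 μm) was operated at 100 μL/min with water and acetonitrile, each containing 0.1% formic acid. The dead volume was 40 μL and the dwell volume 900 μL. Retention time came from adduct peaks that were computationally picked and individually inspected by hand.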

RP-LC retention time	SMILES
765 s	Cc1cn(C)c(CC(=O)NC2CCCCCC2)c1C(=O)O
603 s	Cc1ccc(C)c(NC(=O)c2cn3c(n2)CCCC3)c1
702 s	Cc1csc(NC(=O)C2CCN(S(=O)(=O)c3cc(C(=O)N4CCOCC4)cs3)CC2)n1
810 s	COc1ccc(C(=O)N(Cc2cc(OC)c(OC)c(OC)c2)CC2CCCO2)cc1 (centres undefined)
809 s	COc1cc(CNC(=O)CCc2ccc(C(F)(F)F)cc2)cc(OC)c1OC
636 s	COc1ccc(-c2nn(CCCC(=O)N3CCN(c4ccccn4)CC3)c(=O)c3noc(C)c23)cc1
667 s	COc1ccccc1NC(=O)N1CCCC(Cn2cnc3cccnc32)C1 (centres undefined)
1160 s	COc1ccc(-c2nc(-c3ccc4c(c3)nc(C)c(=O)n4C(C)C)no2)cc1
814 s	Cn1cc(S(=O)(=O)Nc2ccc(F)cc2Cl)c2cccnc21
617 s	COCCNC(=O)C1CCN(c2ncnc3c2oc2ccccc23)CC1
820 s	Cc1ccc2[nH]cc(CCN3CC(C(=O)Nc4cccc(C)c4C)CC3=O)c2c1 (centres undefined)
952 s	O=c1ccc(-c2ccc(F)cc2)nn1Cc1nc(-c2ccc(F)cc2)no1
813 s	CC(C)c1c(C2CCN(C(=O)C3(c4ccccc4)CC3)CC2)noc1N
824 s	COc1ccc(OCc2noc(CNS(=O)(=O)Cc3ccccc3)n2)cc1
767 s	CCN(CC)C(=O)c1cc2c(s1)CCC(C(=O)Nc1ccc(N3CCOCC3)cc1)C2 (centres undefined)
761 s	CCN1C(=O)CCc2cc(NC(=O)c3n[nH]c4ccccc34)ccc21
788 s	CNCC[C@H](Oc1cccc2ccccc12)c1cccs1
648 s	CCNC(=O)C1CCCN(c2nc3ncn(CC(=O)NCc4ccc(F)cc4)c(=O)c3s2)C1 (centres undefined)
1140 s	CCCn1cc(C(=O)NCc2ccc(C)cc2)c(S(=O)(=O)N2CCC(C)CC2)n1
1260 s	CCCCn1c(=O)c2ccccc2n(Cc2nc(-c3ccc(C(F)(F)F)cc3)no2)c1=O
922 s	Cc1ccc(CNC(=O)CN2C(=O)C3CCCCN3c3ccc(S(=O)(=O)N(C)C)cc32)cc1 (centres undefined)
1080 s	C[C@H]1CN(C(=O)Nc2ccc(Cl)cc2)C[C@@H]1c1nc(-c2ccccc2)no1
590 s	CCn1ccc(C(=O)NC2CCCN(c3cc(N(C)C)ncn3)C2)n1 (centres undefined)
657 s	COc1ccc(-c2nc(C)cc(C)c2CNS(=O)(=O)c2cccc(F)c2)cc1
738 s	Cc1ccc(-c2ncccc2CNS(=O)(=O)c2cc(F)ccc2C)cc1
910 s	CN(C)S(=O)(=O)c1ccc(C(=O)Nc2nc(-c3ccc4c(c3)OCO4)cs2)cc1

RP-LC retention time	SMILES
636 s	COc1ccc(-c2c(C)noc2NC(C)=O)cc1S(=O)(=O)Nc1ccc(S(N)(=O)=O)cc1
1060 s	CCCn1c(=O)c2c(C(=O)NCc3ccc(Cl)cc3)cc(=O)n(CCC)c2n(C)c1=O
547 s	CCN1CCN(c2ncc3c(n2)CCN(Cc2ccc(OC)c(OC)c2OC)C3)CC1
702 s	CN(C)c1ccc(C(=O)Nc2cnc(N3CCCC3)nc2)cc1
1100 s	COc1ccc(-c2cc(-c3ccccc3)nc3c2CC(=O)Nc2ccccc2-3)cc1OC
925 s	Cc1ccc(CNC(=O)Cn2c3ccccc3c3cnn(C)c(=O)c32)o1
627 s	CC(=O)N(C)CCc1noc(C2CN(C(=O)Cc3cccs3)C2)n1
732 s	Cc1cccc(NC(=O)CN2CCN(Cc3ccc(F)cc3)C(=O)C2=O)c1C
693 s	CCC(=O)N1CCc2cc(N3CC(C(=O)Nc4cccc(C)c4)CC3=O)ccc21 (centres undefined)
571 s	Nc1nc(=O)n(C2CS[C@H](CO)O2)cc1F (some centres undefined)
756 s	CCSc1cccc(C(=O)N2CC(=O)Nc3ccccc32)c1
1080 s	CCCCN1C(=O)C(C)(C(=O)Nc2ccc(OC)c(Cl)c2)Oc2cccnc21 (centres undefined)
624 s	Cc1cccnc1NC(=O)C1CCCN(c2ccc3cc(S(=O)(=O)N4CCCC4)ccc3n2)C1 (centres undefined)
827 s	O=C(NCc1ccc(F)cc1Cl)C1CCCN(c2nn3c(=O)c4c(nc3s2)CCCC4)C1 (centres undefined)
654 s	CN(Cc1nc2cc(C(=O)N3CCCC3)ccc2n1C)C(=O)Nc1ccc(Cl)cc1
791 s	Cc1ccccc1S(=O)(=O)N1CCC(CCC(=O)NC2CC2)CC1
984 s	Cc1ccc(N2CC(C(=O)N3CCCC3c3nc(-c4cccc(C)c4)no3)CC2=O)cc1 (centres undefined)
834 s	O=C(CN1CCN(C(=O)Nc2ccc(Br)cc2)CC1=O)NCCC1=CCCCC1
563 s	Cn1cnc2c1CN(C(=O)c1ccc(Br)o1)CC2
631 s	CCOC(=O)N1CCC(NC(=O)c2nc(-c3cnccn3)no2)CC1
904 s	COC(=O)N1CCN(c2ccc(-c3noc(C(F)(F)F)n3)cn2)CC1
1370 s	Clc1cccc(-c2nnc(-c3nc(NCCC4=CCCCC4)c4ccccc4n3)o2)c1
1070 s	Cc1c(C(=O)NC2CCCCCC2)sc2ncn(CC(=O)N3CC(C)CC(C)C3)c(=O)c12 (centres undefined)
730 s	CCC(C)NC(=O)C1CCCN(C(=O)Nc2ccc(NC(=O)Nc3ccccc3)cc2)C1 (centres undefined)
856 s	CC(=O)N(Cc1nn(C)c2c1CN(S(=O)(=O)c1cc(C)ccc1C)CC2)c1ccccc1
790 s	CCc1ccc(-c2cc3c(=O)n(CC(O)c4ccccc4OC)ccn3n2)cc1 (centres undefined)

Continued, molecule first:

SMILES	RP-LC retention time
CCc1ccc(CNC(=O)C2CC(=O)N(c3ccc4oc(C)nc4c3)C2)cc1 (centres undefined)	671 s
COc1ccc(Cc2nn3c(CSc4ccccc4)nnc3s2)cc1	937 s
CCCNC(=O)N1CCCC1c1nc(-c2cccc(Cl)c2)no1 (centres undefined)	904 s
Cc1nc(N)nc(N)c1-c1ccc(Cl)c(Cl)c1	642 s
CN1Cc2ccccc2-n2ccnc2C12CCN(C(=O)c1cccc(C(F)(F)F)c1)CC2	594 s
CCS(=O)(=O)N1CC(=O)N(c2cccc(Cl)c2C)C(C)(C(=O)NCc2ccc(F)cc2)C1 (centres undefined)	913 s
CC(C)CN1C(=O)c2cccn2CC1C(=O)NCCCN1CCN(C)CC1 (centres undefined)	548 s
Cc1ccc(C)c(NC(=O)C(=O)NCC(c2ccc3c(c2)CCCN3C)N2CCCC2)c1 (centres undefined)	746 s
c1ccc(OCc2nc3ccccc3n2CC2CCN(Cc3ccccn3)CC2)cc1	559 s
Cc1ccn2cc(-c3ccc(NS(=O)(=O)c4cc(Cl)ccc4Cl)cc3)nc2n1	691 s
COCCC(=O)NC1CCN(c2ccc(C)c(C)c2)C1=O (centres undefined)	688 s
COC(=O)c1cc(OC)c(OC)cc1NC(=O)C1Oc2ccccc2OC1C (centres undefined)	1040 s
Cc1ccc(F)c(NS(=O)(=O)c2cc(-c3[nH]ncc3C(=O)N(C)C)oc2C)c1	676 s
Cc1ccc(S(=O)(=O)Nc2cc(-c3cn4cccc(C)c4n3)ccc2C)cc1C	729 s
Cc1ccc(CNC(=O)c2ccc3c(c2)nc2n3CCCCC2)o1	619 s
O=C(NCCc1c[nH]c2ccccc12)C1CC(=O)N(CCc2ccccc2)C1 (centres undefined)	758 s
CCOCCn1c(=O)c2c(nc3n2CC(C)CN3c2ccc(OC)cc2)n(C)c1=O (centres undefined)	853 s
Cc1c(-c2noc(-c3ccccc3F)n2)nnn1Cc1ccc(F)cc1	1030 s
Cc1cccc(NC(=O)Cn2nc3n(c2=O)CCCCC3)c1C	675 s

SMILES	RP-LC retention time
COC(=O)C1=CN(C2CC2)c2cc(N3CCC(C)CC3)c(F)cc2S1(=O)=O	1010 s
CCCn1cc(C2=CCN(S(=O)(=O)c3ccc(NC(C)=O)cc3)CC2)c2cccnc21	865 s
CCOC(=O)c1sc(NC(=O)C2CCCO2)nc1-c1ccccc1 (centres undefined)	950 s
O=C(Nc1cccc(Cl)c1)C1CCN(c2nccnc2Sc2ccccc2)CC1	1170 s
O=C(C1CCOCC1)N1CCC(Oc2nccnc2N2CCOCC2)C1 (centres undefined)	598 s
CN(C)C(=O)c1csc(S(=O)(=O)N2CCC(C(=O)NC3CCCC3)CC2)c1	696 s
Cc1cccc(Sc2nccnc2N2CCC(C(=O)NCCCc3ccccc3)CC2)c1	1140 s
COCC(C)NC(=O)C(=O)Nc1ccc2c(c1)OCCO2 (centres undefined)	685 s
CCCc1ccc(S(=O)(=O)N2CCc3c(c(-c4nnc(-c5ccccc5F)o4)nn3C)C2)cc1	1070 s
Cc1ccc(C)c(NC(=O)Cn2nc3c4sc(N(C)C)nc4ncn3c2=O)c1	694 s
O=C(CC1CCN(C(=O)NCc2ccccc2)CC1)NCc1cccc(F)c1	741 s
COc1ccc(CCNC(=O)Cn2ccc3ccc(-c4nnc(C)o4)cc32)cc1OC	715 s
Cc1csc(-c2cn(CC(=O)Nc3ccc(C)c(F)c3)cn2)n1	728 s
c1csc(-c2nc(-c3ccc4c(c3)ncn4CCN3CCCC3)no2)c1	614 s
Cc1ccc(F)cc1NC(=O)CSc1nc(N2CCCCC2)nc2ccccc12	778 s
Cc1noc(CNC(=O)C2CCN(C(=O)Cn3c(=O)oc4ccccc43)CC2)n1	608 s
COc1ccccc1NC(=O)NC(C(=O)N1CCc2ccccc21)C(C)C (centres undefined)	723 s
O=C(NCC1CCCCC1)c1ccc2c(c1)nc1n2CCN(C2CCCCC2)C1=O	872 s

— the METLIN SMRT retention time set (Domingo-Almenara et al. 2019)
